Experimental data from ChEMBL document CHEMBL1201862, “PubChem BioAssay data set” (2004).
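Assay format: 96-well plates, 48-hour exposure. GI50 marks 50% less growth.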 The source made the active and inactive calls. No stated cut-off is given here; in the data, active = GI50 up to about 1.1 µM and inactive = higher.

Assays:
Test in all cases: NCI anticancer screen, dose series, 48 h
786-0 = tested on: 786-0
A498 = tested on: A498
A549 = tested on: A549
ACHN = tested on: ACHN
CCRF-CEM = tested on: CCRF-CEM
COLO 205 = tested on: COLO 205
DMS-114 = tested on: DMS-114
DMS-273 = tested on: DMS-273
EKVX = tested on: EKVX
HCC 2998 = tested on: HCC 2998
HCT-116 = tested on: HCT-116
HCT-15 = tested on: HCT-15
HL-60 = tested on: HL-60
HOP-18 = tested on: HOP-18
HOP-62 = tested on: HOP-62
HOP-92 = tested on: HOP-92
HT-29 = tested on: HT-29
IGROV-1 = tested on: IGROV-1
K562 = tested on: K562
KM-20L2 = tested on: KM-20L2
KM12 = tested on: KM12
LOX IMVI = tested on: LOX IMVI
M14 = tested on: M14
M19-MEL = tested on: M19-MEL
MOLT-4 = tested on: MOLT-4
Malme-3M = tested on: Malme-3M
NCI-H226 = tested on: NCI-H226
NCI-H23 = tested on: NCI-H23
NCI-H460 = tested on: NCI-H460
NCI-H522 = tested on: NCI-H522
OVCAR-3 = tested on: OVCAR-3
OVCAR-4 = tested on: OVCAR-4
OVCAR-8 = tested on: OVCAR-8
RPMI-8226 = tested on: RPMI-8226
RXF 393 = tested on: RXF 393
RXF 631 = tested on: RXF 631
SF-268 = tested on: SF-268
SF-295 = tested on: SF-295
SF-539 = tested on: SF-539
SK-MEL-28 = tested on: SK-MEL-28
SK-MEL-2 = tested on: SK-MEL-2
SK-MEL-5 = tested on: SK-MEL-5
SK-OV-3 = tested on: SK-OV-3
SN12C = tested on: SN12C
SNB-19 = tested on: SNB-19
SNB-75 = tested on: SNB-75
SNB-78 = tested on: SNB-78
SW-620 = tested on: SW-620
TK-10 = tested on: TK-10
U-251 = tested on: U-251
UACC-257 = tested on: UACC-257
UACC-62 = tested on: UACC-62
UO-31 = tested on: UO-31
XF498 = tested on: XF498
DLD-1 = tested on: DLD-1
OVCAR-5 = tested on: OVCAR-5
SR = tested on: SR

Question: How did the GI50 (786-0) turn out when `C=C(C)CCN[Si](c1ccccc1)(c1ccccc1)C(C)(C)C` was run?
Answer: 16.6 µM (inactive)

Question: What about the GI50 (A498) of the same molecule?
Answer: 28.9 µM (inactive)

Question: And the GI50 (A549)?
Answer: 24.1 µM (inactive)

Question: What about the GI50 (ACHN) of the same molecule?
Answer: 26 µM (inactive)

Question: What about the GI50 (CCRF-CEM) of the same molecule?
Answer: 25.8 µM (inactive)

Question: What about the GI50 (COLO 205) of the same molecule?
Answer: 18.5 µM (inactive)

Question: What about the GI50 (DMS-114) of the same molecule?
Answer: 21.7 µM (inactive)

Question: What about the GI50 (DMS-273) of the same molecule?
Answer: 18.8 µM (inactive)

Question: And the GI50 (EKVX)?
Answer: 22.1 µM (inactive)

Question: What about the GI50 (HCC 2998) of the same molecule?
Answer: 21.1 µM (inactive)

Question: And the GI50 (HCT-116)?
Answer: 14.6 µM (inactive)

Question: And the GI50 (HCT-15)?
Answer: 21.9 µM

Question: What about the GI50 (HL-60) of the same molecule?
Answer: 20.1 µM (inactive)

Question: And the GI50 (HOP-18)?
Answer: 17.2 µM (inactive)

Question: And the GI50 (HOP-62)?
Answer: 17.1 µM (inactive)

Question: And the GI50 (HOP-92)?
Answer: 18.2 µM (inactive)

Question: And the GI50 (HT-29)?
Answer: 16.6 µM (inactive)

Question: And the GI50 (IGROV-1)?
Answer: 27.1 µM (inactive)

Question: And the GI50 (K562)?
Answer: 24.1 µM (inactive)

Question: What about the GI50 (KM-20L2) of the same molecule?
Answer: 17.9 µM (inactive)

Question: What about the GI50 (KM12) of the same molecule?
Answer: 18.5 µM (inactive)

Question: What about the GI50 (LOX IMVI) of the same molecule?
Answer: 17.8 µM (inactive)

Question: What about the GI50 (M14) of the same molecule?
Answer: 18.9 µM (inactive)

Question: What about the GI50 (M19-MEL) of the same molecule?
Answer: 20.5 µM (inactive)

Question: What about the GI50 (MOLT-4) of the same molecule?
Answer: 18.7 µM (inactive)

Question: What about the GI50 (Malme-3M) of the same molecule?
Answer: 20.5 µM (inactive)

Question: And the GI50 (NCI-H226)?
Answer: 12.1 µM (inactive)

Question: What about the GI50 (NCI-H23) of the same molecule?
Answer: 19.4 µM (inactive)

Question: And the GI50 (NCI-H460)?
Answer: 29 µM (inactive)

Question: What about the GI50 (NCI-H522) of the same molecule?
Answer: 18.1 µM (inactive)

Question: And the GI50 (OVCAR-3)?
Answer: 17.6 µM (inactive)

Question: And the GI50 (OVCAR-4)?
Answer: 19 µM (inactive)

Question: What about the GI50 (OVCAR-8) of the same molecule?
Answer: 19.6 µM (inactive)

Question: What about the GI50 (RPMI-8226) of the same molecule?
Answer: 24 µM (inactive)

Question: And the GI50 (RXF 393)?
Answer: 15.3 µM (inactive)

Question: What about the GI50 (RXF 631) of the same molecule?
Answer: 20.2 µM (inactive)

Question: What about the GI50 (SF-268) of the same molecule?
Answer: 30.5 µM (inactive)

Question: And the GI50 (SF-295)?
Answer: 19.3 µM (inactive)

Question: And the GI50 (SF-539)?
Answer: 15.6 µM (inactive)

Question: And the GI50 (SK-MEL-28)?
Answer: 20.3 µM (inactive)

Question: What about the GI50 (SK-MEL-2) of the same molecule?
Answer: 15.2 µM (inactive)

Question: And the GI50 (SK-MEL-5)?
Answer: 19 µM (inactive)

Question: And the GI50 (SK-OV-3)?
Answer: 32.3 µM (inactive)

Question: And the GI50 (SN12C)?
Answer: 18.2 µM (inactive)

Question: What about the GI50 (SNB-19) of the same molecule?
Answer: 18.4 µM (inactive)

Question: What about the GI50 (SNB-75) of the same molecule?
Answer: 28.5 µM (inactive)

Question: And the GI50 (SNB-78)?
Answer: 25.1 µM (inactive)

Question: What about the GI50 (SW-620) of the same molecule?
Answer: 40 µM (inactive)

Question: What about the GI50 (TK-10) of the same molecule?
Answer: 22.5 µM (inactive)

Question: And the GI50 (U-251)?
Answer: 15.4 µM (inactive)

Question: What about the GI50 (UACC-257) of the same molecule?
Answer: 15.7 µM (inactive)

Question: And the GI50 (UACC-62)?
Answer: 17 µM (inactive)

Question: What about the GI50 (UO-31) of the same molecule?
Answer: 13.7 µM (inactive)

Question: And the GI50 (XF498)?
Answer: 24.5 µM (inactive)

Question: With `CSc1cnc2ccccc2c1Sc1cn(C)c2ccccc2c1=O` as the molecule, how does the GI50 (786-0) read?
Answer: 30.3 µM (inactive)

Question: And the GI50 (A498)?
Answer: 36.2 µM (inactive)

Question: What about the GI50 (A549) of the same molecule?
Answer: 8.17 µM (inactive)

Question: And the GI50 (ACHN)?
Answer: > 100 µM (inactive)

Question: And the GI50 (CCRF-CEM)?
Answer: 19.7 µM (inactive)

Question: What about the GI50 (COLO 205) of the same molecule?
Answer: 17 µM (inactive)

Question: What about the GI50 (DLD-1) of the same molecule?
Answer: > 100 µM (inactive)

Question: What about the GI50 (DMS-114) of the same molecule?
Answer: 14.9 µM (inactive)

Question: What about the GI50 (DMS-273) of the same molecule?
Answer: 21.6 µM (inactive)

Question: And the GI50 (EKVX)?
Answer: 29.3 µM (inactive)

Question: What about the GI50 (HCC 2998) of the same molecule?
Answer: 70.8 µM (inactive)

Question: And the GI50 (HCT-116)?
Answer: 10.2 µM (inactive)

Question: And the GI50 (HCT-15)?
Answer: 35.8 µM

Question: What about the GI50 (HL-60) of the same molecule?
Answer: 16 µM (inactive)

Question: What about the GI50 (HOP-18) of the same molecule?
Answer: 34 µM (inactive)

Question: And the GI50 (HOP-62)?
Answer: 18 µM (inactive)

Question: What about the GI50 (HOP-92) of the same molecule?
Answer: 12 µM (inactive)

Question: And the GI50 (HT-29)?
Answer: 58.5 µM (inactive)

Question: And the GI50 (IGROV-1)?
Answer: 18.7 µM (inactive)

Question: And the GI50 (K562)?
Answer: 7.82 µM (inactive)

Question: What about the GI50 (KM-20L2) of the same molecule?
Answer: 38.9 µM (inactive)

Question: What about the GI50 (KM12) of the same molecule?
Answer: 25.8 µM (inactive)

Question: What about the GI50 (LOX IMVI) of the same molecule?
Answer: 14.6 µM (inactive)

Question: What about the GI50 (M14) of the same molecule?
Answer: > 100 µM (inactive)

Question: What about the GI50 (M19-MEL) of the same molecule?
Answer: 56 µM (inactive)

Question: What about the GI50 (MOLT-4) of the same molecule?
Answer: 53.2 µM (inactive)

Question: What about the GI50 (Malme-3M) of the same molecule?
Answer: > 100 µM (inactive)

Question: What about the GI50 (NCI-H226) of the same molecule?
Answer: 26.1 µM (inactive)

Question: What about the GI50 (NCI-H23) of the same molecule?
Answer: 19.5 µM (inactive)

Question: What about the GI50 (NCI-H460) of the same molecule?
Answer: 13.2 µM (inactive)

Question: And the GI50 (OVCAR-3)?
Answer: 28.7 µM (inactive)

Question: What about the GI50 (OVCAR-4) of the same molecule?
Answer: 34.8 µM (inactive)

Question: What about the GI50 (OVCAR-5) of the same molecule?
Answer: > 100 µM (inactive)

Question: And the GI50 (OVCAR-8)?
Answer: 18.5 µM (inactive)

Question: What about the GI50 (RPMI-8226) of the same molecule?
Answer: 17.9 µM (inactive)

Question: And the GI50 (RXF 393)?
Answer: 38.4 µM (inactive)

Question: And the GI50 (RXF 631)?
Answer: 10 µM (inactive)

Question: And the GI50 (SF-268)?
Answer: 9.14 µM (inactive)

Question: What about the GI50 (SF-295) of the same molecule?
Answer: 22.6 µM (inactive)

Question: And the GI50 (SF-539)?
Answer: 29 µM (inactive)

Question: And the GI50 (SK-MEL-28)?
Answer: 27.9 µM (inactive)

Question: And the GI50 (SK-MEL-2)?
Answer: 21.8 µM (inactive)

Question: What about the GI50 (SK-MEL-5) of the same molecule?
Answer: 24.4 µM (inactive)

Question: What about the GI50 (SK-OV-3) of the same molecule?
Answer: 17.6 µM (inactive)

Question: And the GI50 (SN12C)?
Answer: 28.8 µM (inactive)

Question: What about the GI50 (SNB-19) of the same molecule?
Answer: 19.1 µM (inactive)

Question: And the GI50 (SNB-75)?
Answer: 17 µM (inactive)

Question: What about the GI50 (SR) of the same molecule?
Answer: 12.6 µM (inactive)

Question: And the GI50 (SW-620)?
Answer: 70.6 µM (inactive)

Question: And the GI50 (TK-10)?
Answer: > 100 µM (inactive)

Question: And the GI50 (U-251)?
Answer: 7.14 µM (inactive)

Question: And the GI50 (UACC-257)?
Answer: 59.4 µM (inactive)

Question: What about the GI50 (UACC-62) of the same molecule?
Answer: 21.9 µM (inactive)

Question: And the GI50 (UO-31)?
Answer: 25.5 µM (inactive)

Question: And the GI50 (XF498)?
Answer: 21.9 µM (inactive)
